We go through 3 molecules from US11761023B2, “Analyzing and using motility kinematics of microorganisms” (PhAST Corp., priority 2017, dated 2023).

Holding throughout (type): cell-based, Pseudomonas aeruginosa
The test system of test [1] is susceptible clinical isolate of P. aeruginosa (PSA 9/53). Put plainly: Single-cell swimming speed (ASK software) relative to antibiotic-free control. To be noted: ciprofloxacin 4 μg/ml, meropenem 0.5 μg/ml, gentamicin 8 μg/ml; FIG. 17. The text has this: The swimming speed (y axis) was normalized by the speed in the control (which thus becomes the dashed line at 1).

For another test, the system named is P. aeruginosa PA14. Put plainly: Single-cell swimming kinematics (ASK software, phase contrast video microscopy) upon antibiotic exposure. To be noted: for change in swimming speed compared to antibiotic-free control: FIG. 12.
In the next test the test system is P. aeruginosa ATCC 27853. Put plainly: MIC by broth microdilution assay.
In test [2] the test system is clinical isolate P. aeruginosa 9/53. Put plainly: MIC by broth microdilution assay.

In brackets after ≈: the same amount, converted by molar mass. Where two headings read alike, the source gives them in different places.

gentamicin: the “sensitivity of motility (swimming speed) to the antibiotic” value in test [1] is “very sensitive”. Further, the “change in swimming speed compared to antibiotic-free control” value was “not” in the test on P. aeruginosa PA14 (0.1 μg/ml), “not” in the test on P. aeruginosa PA14 (1 μg/ml) and “significantly reduced” with P. aeruginosa PA14 (10 μg/ml). The MIC (against P. aeruginosa ATCC 27853; in test [2]) was 1 µg/mL each time.
Consider `C[C@@H](O)[C@H]1C(=O)N2C(C(=O)O)=C(S[C@@H]3CN[C@H](C(=O)N(C)C)C3)[C@H](C)[C@H]12` [meropenem], for which the “sensitivity of motility (swimming speed) to the antibiotic” value in test [1] was “less so”. For the same molecule, the MIC in test [2] (Pseudomonas aeruginosa, read-out: MIC) is 0.5 µg/mL (≈ 1.3 µM).
`CC(C)(O/N=C(\C(=O)N[C@@H]1C(=O)N2C(C(=O)[O-])=C(C[n+]3ccccc3)CS[C@H]12)c1csc(N)n1)C(=O)O` [ceftazidime]: in the test with P. aeruginosa PA14 (0.1 μg/ml), the “change in swimming speed compared to antibiotic-free control” value was “no significant changes”. The “decrease of mean swimming speed compared to the antibiotic-free control” value in the test on P. aeruginosa PA14 (1 μg/ml, after 30 min) is listed as 14%; in the test on P. aeruginosa PA14 (1 μg/ml, after 50 min), 23%; in the test with P. aeruginosa PA14 (1 μg/ml, after 70 min) it was 33%. Besides, the “mean swimming speed of exposed cells” value was 42.6 μm/s in the test with P. aeruginosa PA14 (1 μg/ml, after 30 min); 35.4 μm/s in the test on P. aeruginosa PA14 (1 μg/ml, after 50 min); 31.2 μm/s in the test with P. aeruginosa PA14 (1 μg/ml, after 70 min).
